Source: patent publication US6461644B1, “Anesthetizing plastics, drug delivery plastics, and related medical products, systems and methods” (priority 1996, dated 2002)

Assays:
[1] = test system: skin; test: Demonstrations of anesthetizing plastic, tapes and adhesive films on skin; assay type: in vivo, human; settings: employed instead of lidocaine
Description: […]. For instance, lidocaine added to polyvinyl chloride is all that is needed to create a soft, stretchy, elastic vinyl milled film or sheet. Like the common vinyl plasticizer di-isooctyl phthalate, lidocaine base slowly migrates to the surface of the formed object, to serve as a sustained source of anesthetic to tissue contacted by the device. The rate of drug delivery is governed by the selected concentration of the drug, the selected plastic resin and the acceptance rate of the part of the body with which the anesthetizing plastic is in contact. […]. A piece of such milled vinyl anesthetic material has remained taped to skin for 10 days without any diminution of anesthetizing effect or apparent loss of plasticization.
. […]. However, when this adhesive-topical anesthetic mixture is applied to polyethylene film as a carrier and is pressed with a warm hand to human skin, sufficient tackiness is observed that the film clings to the applied areas effectively, but can be readily removed. The tacky product is suitably dispensed with the tacky layer protected by contact with silicone coated release paper.
With such devices, in 1-3 hours topical anesthesia of the skin is established, which will last for 2-3 days if the film patch is left in place. Washing the skin e.g. with lauramide surfactant prior to applying the film decreases the onset time for skin anesthesia. […]

[2] = Procedure: In one case, in the course of manufacture, propafenone is dissolved in orally administratable solid granules such as coarse or fine powder of non-biodegradable thermoplastic resin. […] In another embodiment, the resin is formed on or as an implant to release the drug directly to heart tissue or the blood stream, or as a transdermal patch or as a drug-applying ear or nose plug.

SMILES	duration of anesthesia following removal compared with lidocaine [1]	amount held by PVC ([2]; PVC)	amount in solution in PVC that can be employed ([2]; PVC) [% by weight]	amount held by CPE ([2]; chlorinated polyethylene, by milling)	amount held by EP ([2]; ethylene propylene, by milling)
CCCCOc1cc(C(=O)NCCN(CC)CC)c2ccccc2n1 [dibucaine]	substantially longer	–	–	–	–
CCN(CC)CC(=O)Nc1c(C)cccc1C [lidocaine base]	–	about 50%	≥ 50	about 25%	about 25%
CCCCNc1ccc(C(=O)OCCN(C)C)cc1 [tetracaine]	substantially longer	–	–	–	–
